Data published in patent publication US20250074943A1, “DLL3 BINDING PEPTIDES AND USES THEREOF” (AMGEN INC., priority 2021, published 2025).
Read-outs that look alike come from different tables or passages of the source. Numbered stars: 1 amine (or outer) side, 2 acyl side, 3 side chain; on linkers, the order of the positions; unused ones are H or OH. Bridge positions count the residues as written; N and C are the ends. Peptide text beside a SMILES is read from it. I, II: the chains in the order shown. * marks the point of attachment. X8 = NC(=O)[C@H](CCCCNC(=O)CCOCCOCCOCCOCCNC(=O)CCOCCOCCOCCN(CCOCCOCCOCCC(=O)NCCOCCOCCOCCOCCC(=O)NCCCC[C@H](NC(=O)CCC(=O)NCCCOCCOCCOCCCN[*:2])C(N)=O)C(=O)CNC(=O)CCOCCOCCOCCOCCNC(=O)CCC(=O)N1Cc2ccccc2C#Cc2ccccc21)NC(=O)CCC(=O)NCCCOCCOCCOCCCN[*:1]; X1 = NC(=O)[C@H](CCCCNC(=O)CCOCCOCCOCCOCCNC(=O)CCC(=O)N1Cc2ccccc2C#Cc2ccccc21)NC(=O)CCC(=O)NCCCOCCOCCOCCCN*

What was measured:
rhDLL3-Fc = molecular target: T1, rhDLL3-Fc (Homo sapiens, UniProt Q9NYJ7); assay: SPR binding / off-rate screening (Biacore T200)
T1 construct: The recombinant DLL3 ectodomain (rhDLL3-Fc) was biotinylated; Fc
T1 sequence (Q9NYJ7 27-492 limits assumed): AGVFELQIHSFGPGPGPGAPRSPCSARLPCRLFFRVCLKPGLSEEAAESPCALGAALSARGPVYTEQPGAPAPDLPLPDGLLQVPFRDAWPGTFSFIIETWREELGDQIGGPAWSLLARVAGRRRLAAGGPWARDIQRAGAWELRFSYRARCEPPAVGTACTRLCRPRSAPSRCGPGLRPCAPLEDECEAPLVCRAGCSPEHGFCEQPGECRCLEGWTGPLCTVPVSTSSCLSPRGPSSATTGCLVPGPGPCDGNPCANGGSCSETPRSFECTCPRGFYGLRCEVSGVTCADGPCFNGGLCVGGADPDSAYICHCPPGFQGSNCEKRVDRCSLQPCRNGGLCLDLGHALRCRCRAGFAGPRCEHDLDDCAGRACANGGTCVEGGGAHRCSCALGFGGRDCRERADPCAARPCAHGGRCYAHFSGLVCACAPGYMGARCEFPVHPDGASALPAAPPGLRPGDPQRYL
Method: […] The recombinant DLL3 ectodomain (rhDLL3-Fc) was biotinylated using EZ-Link Sulfo-NHS-LC-LC-Biotin Kit according to the manufacturer's protocol (Pierce by Thermo Fisher Scientific). The recombinant protein was incubated with an excess of NHS-LC-LC Biotin ester, in a molar ratio of 1:3 (protein: biotin), at 25° C. for 90 min. The un-reacted biotin ester was removed by subsequent buffer exchange on 0.5 ml Zeba spin desalting columns 7K MWCO (Pierce by Thermo Fisher Scientific).
The off-rate screening of the peptides was done using a Biacore T200 instrument (Cytiva, Sweden). […] Sensorgrams were analyzed by Biacore T200 Evaluation Software 3.0 (Cytiva, Sweden): specific binding was obtained by subtracting unspecific binding to naked biosensors and a zero analyte concentration made of binding assay buffer (double referencing). […]

[1] = molecular target: T2, native huDLL3 on the surface of cells (CHO cells) (Homo sapiens, UniProt Q9NYJ7); assay: Flow cytometry competition with AF647-labelled peptide; type: cell-based
T2 construct: expressed in transfected cells; host or cells: CHO (CHO-huDLL3)
T2 sequence (Q9NYJ7 27-618): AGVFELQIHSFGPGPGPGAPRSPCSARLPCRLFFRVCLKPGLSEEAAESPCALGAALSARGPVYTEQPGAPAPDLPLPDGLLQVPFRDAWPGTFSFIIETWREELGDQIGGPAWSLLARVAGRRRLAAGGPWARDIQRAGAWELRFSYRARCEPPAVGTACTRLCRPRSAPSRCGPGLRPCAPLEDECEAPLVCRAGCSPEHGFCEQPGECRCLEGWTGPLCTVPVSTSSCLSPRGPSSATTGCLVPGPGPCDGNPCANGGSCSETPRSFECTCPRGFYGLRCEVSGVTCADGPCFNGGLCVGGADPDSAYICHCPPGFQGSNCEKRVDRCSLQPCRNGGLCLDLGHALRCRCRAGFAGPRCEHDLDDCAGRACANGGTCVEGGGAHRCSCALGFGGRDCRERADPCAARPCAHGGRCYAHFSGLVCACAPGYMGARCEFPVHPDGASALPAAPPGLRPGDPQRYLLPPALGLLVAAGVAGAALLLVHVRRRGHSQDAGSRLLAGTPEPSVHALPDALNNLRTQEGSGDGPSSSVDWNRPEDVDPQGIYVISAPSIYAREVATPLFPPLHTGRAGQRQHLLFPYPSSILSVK
Method: HEK293-huDLL3, CHO-huDLL3 and the corresponding parental cell lines were detached with EDTA 2.5 mM and re-suspended at 1.8×10^6 cells/ml in FACS buffer (1×PBS, 2% FBS), distributed at 500 μl per testing tube and pelleted 5 min at 1300 rpm in a Heraeus Multifuge […] centrifuge.

[2] = molecular target: T3, recombinant DLL3 ectodomain (rhDLL3-Fc) (Homo sapiens, UniProt Q9NYJ7); assay: Binding kinetic assay using Bio-layer interferometry (BLI); settings: for binding mode to DLL3: peptides at 20, 4 and 0.8 μM, fit to 1:1 Langmuir binding model; for affinity: wider dose-response 10×KD to 0.1×KD
T3 construct: The recombinant DLL3 ectodomain (rhDLL3-Fc) was biotinylated; Fc
T3 sequence (Q9NYJ7 27-492 limits assumed): T1 sequence (Q9NYJ7 27-492 limits assumed)
Method: Binding kinetic assays were performed using Bio-layer interferometry (BLI) technology. The recombinant DLL3 ectodomain (rhDLL3-Fc) was biotinylated using EZ-Link Sulfo-NHS-LC-LC-Biotin Kit according to the manufacturer's protocol (Pierce by Thermo Fisher Scientific). The recombinant protein was incubated with an excess of NHS-LC-LC Biotin ester, in a molar ratio of 1:3 (protein: biotin), at 25° C. for 90 min. The un-reacted biotin ester was removed by subsequent buffer exchange on 0.5 ml Zeba spin desalting columns 7K MWCO (Pierce by Thermo Fisher Scientific).

[3] = Table 8, curve fitting of SPR sensorgrams, read-out: koff
[4] = Table 8, curve fitting of SPR sensorgrams, read-out: kon
[5] = Table 4, ± values from three independent experiments, read-out: RT (residence time) (converted)

Compound | binding mode to DLL3 [2] | affinity [2] | koff (rhDLL3-Fc; [3]) [s⁻¹] | kon (rhDLL3-Fc; [4]) [M⁻¹ s⁻¹] | residence time [2, 5] [min] | further results
CC(=O)N[C@@H](C)C(=O)N[C@@H](CCC(=O)O)C(=O)N[C@H](C(=O)N[C@H](C(=O)N[C@@H](CCC(=O)O)C(=O)N[C@@H](Cc1ccccc1)C(=O)N[C@@H](Cc1c[nH]c2ccccc12)C(=O)N[C@@H](Cc1c[nH]c2ccccc12)C(=O)N[C@H]1CSSC[C@@H](C(=O)N[C@H](C(=O)N[C@@H](Cc2c[nH]c3ccccc23)C(=O)NCC(=O)NCC(=O)NCCCOCCOCCOCCCNC(=O)CCC(=O)N[C@@H](CCCCNC(=O)CCOCCOCCOCCOCCNC(=O)CCC(=O)N2Cc3ccccc3C#Cc3ccccc32)C(N)=O)[C@@H](C)O)NC(=O)[C@H]([C@@H](C)O)NC(=O)[C@H](Cc2c[nH]c3ccccc23)NC(=O)[C@H](CC(N)=O)NC(=O)[C@H](CCC(=O)O)NC(=O)[C@H](CO)NC(=O)[C@H](CC(N)=O)NC(=O)CNC(=O)[C@H](CC(N)=O)NC1=O)C(C)C)[C@@H](C)O [PepSP1462] (Ac-AETVEFWWCNGNSENWTCTWGG-X1; disulfide 9-18 (inferred)) |  |  |  |  |  | koff (rhDLL3-Fc): 0.0014 s⁻¹; kon (rhDLL3-Fc): 230000 M⁻¹ s⁻¹
CC(C)[C@H](NC(=O)[C@@H](NC(=O)[C@H](CCC(=O)O)NC(=O)[C@H](C)N)[C@@H](C)O)C(=O)N[C@@H](CCC(=O)O)C(=O)N[C@@H](Cc1ccccc1)C(=O)N[C@@H](Cc1c[nH]c2ccccc12)C(=O)NCC(=O)N[C@H]1CSSC[C@@H](C(=O)N[C@@H](Cc2c[nH]c3ccccc23)C(=O)N[C@@H](Cc2c[nH]c3ccccc23)C(N)=O)NC(=O)[C@H]([C@@H](C)O)NC(=O)[C@H](CCC(=O)O)NC(=O)[C@H](CC(N)=O)NC(=O)CNC(=O)[C@H](Cc2c[nH]c3ccccc23)NC(=O)[C@H]([C@@H](C)O)NC(=O)CNC(=O)[C@H]([C@@H](C)O)NC1=O [PepSP1146] | dose-response saturable binding | double-digit nM range |  |  |  | IC50 [1]: 76 nM
CC(C)C[C@H](NC(=O)[C@@H]1CSSC[C@H](NC(=O)CNC(=O)[C@H](Cc2ccc(O)cc2)NC(=O)[C@H](Cc2ccccc2)NC(=O)[C@H](CCC(=O)O)NC(=O)[C@@H](NC(=O)[C@@H](NC(=O)[C@H](CCC(=O)O)NC(=O)[C@H](C)N)[C@@H](C)O)C(C)C)C(=O)N[C@@H](CCC(=O)O)C(=O)N[C@@H]([C@@H](C)O)C(=O)N[C@@H](Cc2ccc(O)cc2)C(=O)N[C@@H](CO)C(=O)NCC(=O)NCC(=O)N[C@@H](Cc2c[nH]c3ccccc23)C(=O)N[C@@H]([C@@H](C)O)C(=O)N1)C(=O)N[C@@H](Cc1c[nH]c2ccccc12)C(N)=O [PepSP1167] (H-AETVEFYGCETYSGGWTCLW-NH2; disulfide 9-18) | dose-response saturable binding |  |  |  | 0.783 | 
[Ac-AETVEFWWCNGNSENWTCTW-GG-Ttds-K(PEG4-PEG3)]2-PEG4-DBCO-FEA [PepSP1582] |  |  |  |  |  | binding to rhDLL3-Fc, complex half-life (rhDLL3-Fc; single point SPR): tight rhDLL3-Fc binders with a stable complex half-life

Continued, in another order:

binding mode to DLL3 [2] | affinity [2] | koff (rhDLL3-Fc; [3]) [s⁻¹] | kon (rhDLL3-Fc; [4]) [M⁻¹ s⁻¹] | residence time [2, 5] [min] | Compound | further results
dose-response saturable binding | double-digit nM range | 0.0097 | 140000 | 1.83 | CC(C)[C@H](NC(=O)[C@@H](NC(=O)[C@H](CCC(=O)O)NC(=O)[C@H](C)N)[C@@H](C)O)C(=O)N[C@@H](CCC(=O)O)C(=O)N[C@@H](Cc1ccccc1)C(=O)N[C@@H](Cc1c[nH]c2ccccc12)C(=O)N[C@@H](Cc1c[nH]c2ccccc12)C(=O)N[C@H]1CSSC[C@@H](C(=O)N[C@H](C(=O)N[C@@H](Cc2c[nH]c3ccccc23)C(N)=O)[C@@H](C)O)NC(=O)[C@H]([C@@H](C)O)NC(=O)[C@H](Cc2c[nH]c3ccccc23)NC(=O)[C@H](CC(N)=O)NC(=O)[C@H](CCC(=O)O)NC(=O)[C@H](CO)NC(=O)[C@H](CC(N)=O)NC(=O)CNC(=O)[C@H](CC(N)=O)NC1=O [PepSP1171] | Kd (rhDLL3-Fc; Table 8, curve fitting of SPR sensorgrams): 70 nM; Kd ([2]; Table 4, global fitting 1:1 Langmuir, koff vs kon ratio, ± values from three independent experiments): 70 ± 19 nM; residence time ([2]; range over the seven peptides, read-out: residence time): 1 to 3 min
 |  | 0.00031 | 120000 |  | I: Ac-AETVEFWWCNGNSENWTCTWGG / II: Ac-AETVEFWWCNGNSENWTCTWGG (disulfide I:9-I:18, II:9-II:18; linker I:C-II:C via X8) [PepSP1488] | 
